From patent US9675592B2, “Methods and compositions for bacteria infections” (priority 2013, dated 2017)
Where two headings read alike, the source gives them in different places.

Key:
[1] = system: test strain 923 pPvra-lux (USA300 MRSA); assay: Primary screen, relative growth in presence of oxacillin; conditions: compound 10 μM with oxacillin 2 μg/mL, absorbance 24 h, <0.50 = dead cells = hit
[2] = system: vraSR promoter (Pvra-lux reporter in strain 923); assay: Primary screen, relative luminescence (vraSR expression)
[3] = primary screen, compound 10 μM with oxacillin 2 μg/mL, <0.50 = vraSR repressed = hit

Row | Structure (SMILES) | RG avg (relative growth) [1] | RL avg (relative luminescence) [2, 3] | RL avg (relative luminescence) [2]
1 | COc1ccccc1-c1nnc(NC(=O)c2ccc(S(=O)(=O)N(C)c3ccccc3)cc2)o1 [F0559-127] | −0.05 | −0.11 | –
2 | O=C(Nc1nnc(-c2cc(Cl)ccc2Cl)o1)c1ccc(Br)s1 [F2518-41] | 0.00 | −0.03 | –
3 | CC(C)Cn1c(N)c(C(=O)NCc2cccs2)c2nc3ccccc3nc21 [F3225-3356] | 0.39 | 0.01 | –
4 | O=C(Nc1nnc(-c2ccc(F)cc2)o1)c1ccc(Oc2ccccc2)cc1 [F1374-188] | 0.02 | 0.33 | –
5 | O=C(Nc1nc(-c2ccccn2)cs1)c1cccc(Oc2ccccc2)c1 [F0447-264] | −0.03 | −0.05 | –
6 | COc1cc(-c2nnc(NC(=O)c3ccc(S(=O)(=O)N4CCc5ccccc5C4)cc3)o2)cc(OC)c1OC [F0559-321] | −0.03 | −0.09 | –
7 | COc1cccc2cc(-c3nnc(NC(=O)c4ccc5ncsc5c4)o3)oc12 [F2273-114] | 0.26 | 0.26 | –
8 | O=C(Nc1nnc(-c2cc(Cl)ccc2Cl)o1)c1nc2ccccc2s1 [F2518-39] | −0.01 | −0.07 | –
9 | COc1cc(-c2nnc(NC(=O)c3ccc(S(=O)(=O)N4CCCC4)cc3)o2)cc(OC)c1OC [F0559-311] | −0.06 | 0.02 | –
10 | COc1cccc2cc(C(=O)Nc3nnc(-c4ccc(Br)s4)o3)oc12 [F5093-196] | −0.01 | −0.01 | –
11 | O=C(Nc1nnc(-c2ccc(Br)s2)o1)c1cc(Cl)ccc1Cl [F5093-46] | −0.01 | −0.07 | –
12 | COC(=O)c1ccc(C(=O)Nc2nnc(-c3ccccc3Cl)o2)cc1 [F1374-55] | 0.28 | 0.47 | –
13 | O=C(Nc1nnc(-c2cc(Cl)sc2Cl)o1)c1cccs1 [F1374-2664] | 0.00 | 0.32 | –
14 | O=C(Nc1nnc(-c2cccs2)o1)c1ccc(S(=O)(=O)N2CCCc3ccccc32)cc1 [F0559-350] | 0.43 | 0.11 | –
15 | O=C(Nc1nnc(-c2cc3ccccc3o2)o1)c1cccc(Cl)c1 [F2273-385] | 0.28 | 0.16 | –
16 | O=C(Nc1nnc(-c2ccc(Br)cc2)o1)c1ccc(Oc2ccccc2)cc1 [F2518-534] | 0.01 | 0.04 | –
17 | Cc1ccc(-c2nnc(NC(=O)c3ccc(Cl)s3)o2)c(C)c1 [F2518-186] | 0.01 | −0.09 | –
18 | O=C(Nc1nnc(-c2ccc3c(c2)CCCC3)o1)c1ccc(Cl)cc1Cl [F0608-661] | 0.11 | −0.04 | –
19 | O=C(Nc1nnc(-c2ccccc2Cl)o1)c1cc(Cl)sc1Cl [F1374-58] | 0.03 | 0.33 | –
20 | O=C(Nc1nnc(-c2cc(Cl)ccc2Cl)o1)c1ccccc1 [F2518-2] | −0.02 | 0.01 | –
21 | COc1cc(OC)cc(C(=O)Nc2nnc(-c3ccc(Br)cc3)o2)c1 [F2518-451] | −0.01 | −0.10 | –

Row | Structure (SMILES) | RG avg (relative growth) [1] | RL avg (relative luminescence) [2, 3] | RL avg (relative luminescence) [2]
22 | COc1cccc(-c2nnc(NC(=O)C(c3ccccc3)c3ccccc3)o2)c1 [F1374-379] | 0.47 | 0.34 | –
23 | O=C(Nc1nnc(-c2ccc(Br)s2)o1)c1ccc(F)cc1 [F5093-12] | 0.01 | −0.01 | –
24 | O=C(Nc1nnc(-c2ccc(Cl)s2)o1)c1ccc(Cl)cc1 [F1374-1055] | 0.02 | 0.50 | –
25 | O=C(Nc1nnc(-c2cc(Cl)ccc2Cl)o1)c1ccc(C(=O)c2ccccc2)cc1 [F2518-24] | −0.01 | 0.06 | –
26 | CC1CCCCN1S(=O)(=O)c1ccc(C(=O)Nc2nnc(-c3ccc4c(c3)OCCO4)o2)cc1 (centres unmarked) [F0608-71] | −0.03 | 0.01 | –
27 | O=C(Nc1nnc(-c2cccnc2)o1)c1cc(Cl)cc(Cl)c1 [F0608-1062] | −0.04 | −0.10 | –
28 | O=C(Nc1nnc(-c2ccc3c(c2)OCCO3)o1)c1cccc(Cl)c1 [F0608-123] | −0.02 | −0.04 | –
29 | O=C(Nc1nnc(-c2cc(Cl)ccc2Cl)o1)c1cc(-c2ccccc2)nc2ccccc12 [F2518-55] | 0.00 | −0.02 | –
30 | O=C(Nc1nnc(-c2ccc(F)cc2)o1)c1sc2ccccc2c1Cl [F1374-148] | 0.04 | 0.36 | –
31 | O=C(Nc1nnc(-c2ccc(Br)cc2)o1)c1ccc2c(c1)CCCC2 [F2518-517] | 0.01 | −0.08 | –
32 | Cc1ccc(NCC(O)Cn2c3ccc(Br)cc3c3cc(Br)ccc32)cc1 (centres unmarked) [F0191-4604] | −0.07 | −0.06 | –
33 | C=CCN(CC=C)S(=O)(=O)c1ccc(C(=O)Nc2nnc(-c3cc(OC)c(OC)c(OC)c3)o2)cc1 [F0559-279] | 0.40 | −0.09 | –
34 | O=C(Nc1nnc(-c2cccs2)o1)c1ccc2c(c1)CCCC2 [F1374-1012] | 0.16 | 0.49 | –
35 | O=C(COc1ccc(Cl)cc1)Nc1nnc(-c2ccc(Br)cc2)o1 [F2518-483] | −0.02 | −0.04 | –
36 | O=C(Nc1nnc(-c2ccc(Br)s2)o1)c1nc2ccccc2s1 [F5093-37] | 0.02 | −0.03 | –
37 | COc1cc(OC)cc(-c2nnc(NC(=O)c3ccc(Cl)s3)o2)c1 [F1374-666] | 0.05 | 0.34 | –
38 | O=C(Nc1nnc(C2COc3ccccc3O2)o1)c1ccc(S(=O)(=O)N2CCc3ccccc3C2)cc1 (centres unmarked) [F0608-728] | −0.02 | −0.01 | –
39 | COc1cccc(-c2nnc(NC(=O)c3cccc(Oc4ccccc4)c3)o2)c1 [F1374-396] | 0.04 | 0.34 | –
40 | Cc1ccc(C)c(-c2nnc(NC(=O)c3cccc(Br)c3)o2)c1 [F2518-303] | 0.00 | −0.02 | –
41 | COc1cc(OC)cc(-c2nnc(NC(=O)c3ccc(S(=O)(=O)N(C)c4ccccc4)cc3)o2)c1 [F0559-246] | −0.03 | −0.08 | –
42 | COc1ccc(Cc2nnc(NC(=O)c3ccc(S(=O)(=O)N(C)Cc4ccccc4)cc3)o2)cc1 [F2368-617] | −0.04 | −0.07 | –

Row | Structure (SMILES) | RG avg (relative growth) [1] | RL avg (relative luminescence) [2, 3] | RL avg (relative luminescence) [2]
43 | O=C(Nc1nnc(-c2ccc(C(F)(F)F)cc2)o1)c1cc2ccccc2o1 [F1374-2134] | 0.20 | 0.38 | –
44 | O=C(Nc1nnc(-c2ccc(Br)cc2)o1)c1cc(Cl)ccc1Cl [F2518-481] | 0.00 | −0.05 | –
45 | O=C(Nc1nnc(-c2ccc(Br)s2)o1)c1ccc(Cl)s1 [F5093-40] | 0.03 | −0.02 | –
46 | O=C(Nc1nnc(-c2cc3ccccc3o2)o1)c1ccc2ncsc2c1 [F2273-492] | 0.25 | 0.24 | –
47 | O=C(Nc1nnc(-c2ccc(Cl)s2)o1)c1nc2ccccc2s1 [F1374-1083] | 0.02 | 0.49 | –
48 | O=C(Nc1nnc(-c2ccc(F)cc2)o1)c1ccc2c(c1)CCCC2 [F1374-172] | 0.04 | 0.39 | –
49 | CCCCN(C)S(=O)(=O)c1ccc(C(=O)Nc2nnc(-c3ccc(Br)s3)o2)cc1 [F5093-101] | −0.02 | −0.04 | –
50 | O=C(Nc1nnc(-c2ccc(Br)cc2)o1)c1cccc(Br)c1 [F2518-447] | 0.02 | 0.00 | –
51 | O=C(Nc1nnc(-c2ccco2)o1)c1ccc(Oc2ccccc2)cc1 [F0608-491] | −0.06 | −0.11 | –
52 | CSc1ccc(-c2nnc(NC(=O)c3ccc(S(=O)(=O)N(C)Cc4ccccc4)cc3)o2)cc1 [F2645-405] | 0.29 | 0.57 | –
53 | Cc1ccc(-c2nnc(NC(=O)c3ccc(Cl)cc3Cl)o2)c(C)c1 [F2518-166] | −0.02 | −0.10 | –
54 | Cc1ccc(C)c(-c2nnc(NC(=O)c3ccc4ncsc4c3)o2)c1 [F2518-414] | 0.01 | −0.02 | –
55 | O=C(COc1ccc(Cl)cc1Cl)Nc1nnc(-c2ccc(Cl)s2)o1 [F1374-1102] | 0.13 | – | 0.49
56 | COc1cc(-c2nnc(NC(=O)c3ccc(S(=O)(=O)N(C)c4ccccc4)cc3)o2)cc(OC)c1OC [F0559-307] | −0.04 | −0.08 | –
57 | O=C(Nc1nnc(-c2ccco2)o1)c1ccc(S(=O)(=O)N2CCCc3ccccc32)cc1 [F0608-447] | −0.05 | −0.02 | –
58 | O=C(Nc1nnc(-c2ccc(Cl)s2)o1)c1ccc2ncsc2c1 [F1374-1151] | −0.02 | 0.35 | –
59 | COc1ccccc1-c1nnc(NC(=O)c2ccc(Cc3ccccc3)cc2)o1 [F1374-276] | 0.01 | 0.39 | –
60 | O=C(Nc1nnc(C2COc3ccccc3O2)o1)c1ccc(S(=O)(=O)N2CCCc3ccccc32)cc1 (centres unmarked) [F0608-715] | −0.01 | −0.05 | –
61 | CSc1ccc(-c2nnc(NC(=O)c3ccc4c(c3)CCCC4)o2)cc1 [F2645-379] | 0.04 | 0.37 | –
